Laboratory results as given in US12187709B2 (Genentech, Inc., priority 2021, dated 2025).

Legend:
c-Cbl (residues 47-435) = c-Cbl (residues 47-435) (Homo sapiens (Human), UniProt P22681); assay: c-Cbl SPR assay; assay type: binding; conditions: 20° C.
In short: (§1)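 Values derive from a 1:1 model fitted to multicycle kinetics on captured protein (1300-1500 RU), using six 2-fold concentrations, 60 s contact and dissociation of 120-1200 s. In the chaser format, kd comes from a single-exponential fit of % site occupancy over time.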

Cbl-b = Cbl-b (Homo sapiens (Human), UniProt Q13191); assay: Cbl-b LCK Ub TR-FRET assay (Cbl-b Lck HTRF); assay type: biochemical; conditions: for IC50: Cbl-b LCK Ub TR-FRET; for fold-selectivity (Cbl-b over C-cbl) / (fold-selectivity) Cbl-b and C-Cbl Selectivity: ratio C-cbl Lck HTRF IC50 / Cbl-b Lck HTRF IC50
Sequence of Cbl-b (Q13191 40-426): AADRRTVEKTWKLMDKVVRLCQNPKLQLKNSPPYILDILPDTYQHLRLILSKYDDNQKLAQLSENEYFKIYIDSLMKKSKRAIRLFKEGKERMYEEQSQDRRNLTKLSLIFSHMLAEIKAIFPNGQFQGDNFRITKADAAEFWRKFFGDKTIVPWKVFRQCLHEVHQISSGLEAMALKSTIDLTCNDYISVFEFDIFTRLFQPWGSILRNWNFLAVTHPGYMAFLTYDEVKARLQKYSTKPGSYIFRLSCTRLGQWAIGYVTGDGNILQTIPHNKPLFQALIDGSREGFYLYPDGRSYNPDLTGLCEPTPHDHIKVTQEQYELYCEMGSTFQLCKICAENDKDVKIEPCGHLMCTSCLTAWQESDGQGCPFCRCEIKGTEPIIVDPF
In short: (§2)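 After the ubiquitination reaction, detection mixture was added and plates incubated 20 min at room temperature before reading. IC50 values were calculated with wells lacking LCK as the low control and DMSO as the high control.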

[1] = biological target: Human Cbl-b (residues 40-426) (Homo sapiens (Human), UniProt Q13191); assay: Cbl-b SPR assay; assay type: binding; conditions: for Fold of selectivity: C-cbl SPR Kd vs Cbl-b SPR Kd; for Kd: SPR, 20° C.
Sequence of Human Cbl-b (residues 40-426) (Q13191 40-426): as above
In short: as §1

c-Cbl = c-Cbl (Homo sapiens (Human), UniProt P22681); assay: C-Cbl LCK Ub TR-FRET assay (C-cbl Lck HTRF); assay type: biochemical
Sequence of c-Cbl (P22681 47-435): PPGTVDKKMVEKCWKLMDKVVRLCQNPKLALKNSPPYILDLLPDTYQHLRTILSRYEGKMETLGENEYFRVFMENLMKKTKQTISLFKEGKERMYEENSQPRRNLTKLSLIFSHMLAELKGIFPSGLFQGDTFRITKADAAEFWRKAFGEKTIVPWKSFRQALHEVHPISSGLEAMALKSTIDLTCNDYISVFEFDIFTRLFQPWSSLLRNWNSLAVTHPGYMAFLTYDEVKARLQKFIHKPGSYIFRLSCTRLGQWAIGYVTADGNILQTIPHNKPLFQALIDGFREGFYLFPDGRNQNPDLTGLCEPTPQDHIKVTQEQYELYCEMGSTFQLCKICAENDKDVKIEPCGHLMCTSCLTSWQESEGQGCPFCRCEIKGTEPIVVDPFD
In short: as §2

Sequence of c-Cbl (residues 47-435) (P22681 47-435): as above

Cn1cnnc1[C@@H](c1cccc(N2Cc3c(cc(CNC4(C)CCC4)cc3C(F)F)C2=O)c1)C1COC1 (single isomer, unassigned) [Compound 303]
Kd (c-Cbl (residues 47-435)): 0.028 µM
IC50 (Cbl-b): 0.011 µM
fold-selectivity (Cbl-b over C-cbl) (Cbl-b): 2.3x
Fold of selectivity [1]: 8.2×
Kd [1]: 0.0033 µM
IC50 (c-Cbl): 0.026 µM

CO[C@H]1C[C@](c2cc(OC3COC3)cc(N3Cc4c(cc(CNC5(C)CCC5)cc4C(F)(F)F)C3=O)c2)(c2nncn2C)C1 [Compound 242, 2-(3-((1r,3r)-3-methoxy-1-(4-methyl-4H-1,2,4-triazol-3-yl)cyclobutyl)-5-(oxetan-3-yloxy)phenyl)-6-(((1-methylcyclobutyl)amino)methyl)-4-(trifluoromethyl)isoindolin-1-one]
Kd (c-Cbl (residues 47-435)): 0.13 µM
IC50 (Cbl-b): 0.056 µM
fold-selectivity (Cbl-b over C-cbl) (Cbl-b): 4.0x
Fold of selectivity [1]: 5.5×
Kd [1]: 0.023 µM
IC50 (c-Cbl): 0.22 µM

Cn1cnnc1[C@@H](c1cccc(N2Cc3c(cc(CNC4(C)CCC4)cc3C(F)(F)F)C2=O)c1)C1(F)COC1 (single isomer, unassigned) [Compound 380]
Kd (c-Cbl (residues 47-435)): 0.004 µM
IC50 (Cbl-b): 0.006 µM
fold-selectivity (Cbl-b over C-cbl) (Cbl-b): 1.2x
Fold of selectivity [1]: 5.0×
Kd [1]: 0.0008 µM
IC50 (c-Cbl): 0.0071 µM

C[C@H]1CCCN(Cc2cc3c(c(C(F)(F)F)c2)CN(c2cccc(C4(c5nncn5C)CC5(COC5)C4)c2)C3=O)C1 (single isomer, unassigned) [Compound 66]
Kd (c-Cbl (residues 47-435)): 0.081 µM
IC50 (Cbl-b): 0.025 µM
fold-selectivity (Cbl-b over C-cbl) (Cbl-b): (2.5x)
Fold of selectivity [1]: 5.0×
Kd [1]: 0.016 µM
IC50 (c-Cbl): 0.0625 µM

Cn1cnnc1[C@H](C[C@H]1COCCO1)c1cccc(N2Cc3c(cc(CNC4(C)CCC4)cc3C(F)(F)F)C2=O)c1 [Compound 294, 2-(3-((R)-2-((S)-1,4-dioxan-2-yl)-1-(4-methyl-4H-1,2,4-triazol-3-yl)ethyl)phenyl)-6-(((1-methylcyclobutyl)amino)methyl)-4-(trifluoromethyl)isoindolin-1-one]
Kd (c-Cbl (residues 47-435)): 0.72 µM
IC50 (Cbl-b): 0.4 µM
fold-selectivity (Cbl-b over C-cbl) (Cbl-b): 1.6x
Fold of selectivity [1]: 1.3×
Kd [1]: 0.53 µM
IC50 (c-Cbl): 0.66 µM

Cn1cnnc1[C@]1(c2cccc(N3Cc4c(cc(CNC5(C)CCC5)cc4C(F)(F)F)C3=O)c2)C[C@H](OCC#N)C1 [Compound 280, 2-((1s,3s)-3-(4-methyl-4H-1,2,4-triazol-3-yl)-3-(3-(6-(((1-methylcyclobutyl)amino)methyl)-1-oxo-4-(trifluoromethyl)isoindolin-2-yl)phenyl)cyclobutoxy)acetonitrile]
Kd (c-Cbl (residues 47-435)): 0.0072 µM
IC50 (Cbl-b): 0.0068 µM
fold-selectivity (Cbl-b over C-cbl) (Cbl-b): 1.6x
Fold of selectivity [1]: 7.0×
Kd [1]: 0.0011 µM
IC50 (c-Cbl): 0.011 µM

C[C@H](NC1(C)CCC1)c1cc2c(c(C(F)(F)F)c1)CN(c1cccc([C@@H](c3nncn3C)C3COC3)c1)C2=O (single isomer, unassigned) [Compound 442]
Kd (c-Cbl (residues 47-435)): 3.3 µM
IC50 (Cbl-b; Example 121): 0.26 µM
(fold-selectivity) Cbl-b and C-Cbl Selectivity (Cbl-b): 11x
Fold of selectivity [1]: 18×
Kd [1]: 0.18 µM
IC50 (c-Cbl): 2.8 µM

Cn1cnnc1[C@H](c1cccc(N2Cc3c(cc(CNC4(C)CCC4)cc3C(F)(F)F)C2=O)c1)C1CC(F)C1 (single isomer, unassigned) [Compound 127]
Kd (c-Cbl (residues 47-435)): 4.8 µM
IC50 (Cbl-b): 0.41 µM
fold-selectivity (Cbl-b over C-cbl) (Cbl-b): 4.1x
Fold of selectivity [1]: 13×
Kd [1]: 0.36 µM
IC50 (c-Cbl): 2 µM

CC(=O)[C@H]1C[C@](c2cccc(N3Cc4c(cc(CNC5(C)CCC5)cc4C(F)(F)F)C3=O)c2)(c2nncn2C)C1 [Compound 347, 2-(3-((1r,3r)-3-acetyl-1-(4-methyl-4H-1,2,4-triazol-3-yl)cyclobutyl)phenyl)-6-(((1-methylcyclobutyl)amino)methyl)-4-(trifluoromethyl)isoindolin-1-one]
Kd (c-Cbl (residues 47-435)): 0.033 µM
IC50 (Cbl-b): 0.01 µM
fold-selectivity (Cbl-b over C-cbl) (Cbl-b): 3x
Fold of selectivity [1]: 11×
Kd [1]: 0.003 µM
IC50 (c-Cbl): 0.03 µM

CO[C@H]1C[C@](c2cc(NC3CCCC3)nc(N3Cc4c(cc(CNC5(C)CCC5)cc4C(F)(F)F)C3=O)c2)(c2nncn2C)C1 [Compound 70, 2-(6-(cyclopentylamino)-4-((1R,3R)-3-methoxy-1-(4-methyl-4H-1,2,4-triazol-3-yl)cyclobutyl)pyridin-2-yl)-6-(((1-methylcyclobutyl)amino)methyl)-4-(trifluoromethyl)isoindolin-1-one]
Kd (c-Cbl (residues 47-435)): 0.22 µM
IC50 (Cbl-b): 0.017 µM
fold-selectivity (Cbl-b over C-cbl) (Cbl-b): (9.3x)
Fold of selectivity [1]: 20×
Kd [1]: 0.011 µM
IC50 (c-Cbl): 0.158 µM

C[C@@H](CC#N)Nc1cc(C2(c3nncn3C)CC3(COC3)C2)cc(N2Cc3c(cc(CNC4(C)CCC4)cc3C(F)(F)F)C2=O)n1 [Compound 194, (S)-3-((4-(6-(4-methyl-4H-1,2,4-triazol-3-yl)-2-oxaspiro[3.3]heptan-6-yl)-6-(6-(((1-methylcyclobutyl)amino)methyl)-1-oxo-4-(trifluoromethyl)isoindolin-2-yl)pyridin-2-yl)amino)butanenitrile]
Kd (c-Cbl (residues 47-435)): 0.016 µM
IC50 (Cbl-b): 0.013 µM
fold-selectivity (Cbl-b over C-cbl) (Cbl-b): 2.5x
Fold of selectivity [1]: 8.3×
Kd [1]: 0.0019 µM
IC50 (c-Cbl): 0.034 µM

COc1cc(N2Cc3c(cc(CNC4(C)CCC4)cc3C(F)(F)F)C2=O)cc([C@]2(c3nncn3C)C[C@H](OC)C2)c1 [Compound 201, 2-(3-methoxy-5-((1r,3r)-3-methoxy-1-(4-methyl-4H-1,2,4-triazol-3-yl)cyclobutyl)phenyl)-6-(((1-methylcyclobutyl)amino)methyl)-4-(trifluoromethyl)isoindolin-1-one]
Kd (c-Cbl (residues 47-435)): 0.011 µM
IC50 (Cbl-b): 0.012 µM
fold-selectivity (Cbl-b over C-cbl) (Cbl-b): 1.5x
Fold of selectivity [1]: 3.6×
Kd [1]: 0.003 µM
IC50 (c-Cbl): 0.018 µM

CO[C@H]1C[C@](c2cc(OC(C)C)cc(N3Cc4c(cc(CNC5(C)CCC5)cc4C(F)(F)F)C3=O)c2)(c2nncn2C)C1 [Compound 207, 2-(3-isopropoxy-5-((1r,3r)-3-methoxy-1-(4-methyl-4H-1,2,4-triazol-3-yl)cyclobutyl)phenyl)-6-(((1-methylcyclobutyl)amino)methyl)-4-(trifluoromethyl)isoindolin-1-one]
Kd (c-Cbl (residues 47-435)): 0.024 µM
IC50 (Cbl-b): 0.024 µM
fold-selectivity (Cbl-b over C-cbl) (Cbl-b): 2.2x
Fold of selectivity [1]: 2.6×
Kd [1]: 0.0093 µM
IC50 (c-Cbl): 0.052 µM

CO[C@H]1C[C@](c2cccc(N3Cc4c(cc(CN5CCOCC5)cc4C(F)(F)F)C3=O)c2)(c2nncn2C)C1 [Compound 417, 2-(3-((1r,3r)-3-methoxy-1-(4-methyl-4H-1,2,4-triazol-3-yl)cyclobutyl)phenyl)-6-(morpholinomethyl)-4-(trifluoromethyl)isoindolin-1-one]
Kd (c-Cbl (residues 47-435)): 8.6 µM
IC50 (Cbl-b; Example 121): 0.48 µM
(fold-selectivity) Cbl-b and C-Cbl Selectivity (Cbl-b): 6.6x
Fold of selectivity [1]: 7.2×
Kd [1]: 1.1 µM
IC50 (c-Cbl): 3.2 µM

Cn1cnnc1C1(c2cccc(N3Cc4c(cc(CNC5(C)CCC5)cc4C(F)F)C3=O)c2)CC2(COC2)C1 [Compound 197, 4-(difluoromethyl)-2-(3-(6-(4-methyl-4H-1,2,4-triazol-3-yl)-2-oxaspiro[3.3]heptan-6-yl)phenyl)-6-(((1-methylcyclobutyl)amino)methyl)isoindolin-1-one]
Kd (c-Cbl (residues 47-435)): 0.11 µM
IC50 (Cbl-b): 0.037 µM
fold-selectivity (Cbl-b over C-cbl) (Cbl-b): 4.5x
Fold of selectivity [1]: 9.2×
Kd [1]: 0.012 µM
IC50 (c-Cbl): 0.16 µM

Cn1cnnc1C1(c2cccc(N3Cc4c(cc(CNC5(C)CCC5)cc4C(F)(F)F)C3=O)c2)COC1 [Compound 58, 2-(3-(3-(4-methyl-4H-1,2,4-triazol-3-yl)oxetan-3-yl)phenyl)-6-(((1-methylcyclobutyl)amino)methyl)-4-(trifluoromethyl)isoindolin-1-one]
Kd (c-Cbl (residues 47-435)): 0.44 µM
IC50 (Cbl-b): 0.28 µM
fold-selectivity (Cbl-b over C-cbl) (Cbl-b): (2.0x)
Fold of selectivity [1]: 3.1×
Kd [1]: 0.14 µM
IC50 (c-Cbl): 0.56 µM

Cn1cnnc1C1(c2cccc(N3Cc4c(cc(CNC5(C)CCC5)cc4C(F)(F)F)C3=O)c2)CC2(COC2)C1 [Compound 65, 2-(3-(6-(4-methyl-4H-1,2,4-triazol-3-yl)-2-oxaspiro[3.3]heptan-6-yl)phenyl)-6-(((1-methylcyclobutyl)amino)methyl)-4-(trifluoromethyl)isoindolin-1-one]
Kd (c-Cbl (residues 47-435)): 0.068 µM
IC50 (Cbl-b): 0.02 µM
fold-selectivity (Cbl-b over C-cbl) (Cbl-b): (3.1x)
Fold of selectivity [1]: 19×
Kd [1]: 0.0037 µM
IC50 (c-Cbl): 0.062 µM

C[C@H](NC1(C)CCC1)c1cc2c(c(C(F)(F)F)c1)CN(c1cccc(C(c3nncn3C)C3COC3)c1)C2=O (stereo partly drawn) [Compound 285]
Kd (c-Cbl (residues 47-435)): 0.0008 µM
IC50 (Cbl-b): 0.006 µM
fold-selectivity (Cbl-b over C-cbl) (Cbl-b): 1.1x
Fold of selectivity [1]: 1.1×
Kd [1]: 0.0007 µM
IC50 (c-Cbl): 0.0065 µM

CCOC1CC([C@@H](c2cccc(N3Cc4c(cc(CNC5(C)CCC5)cc4C(F)(F)F)C3=O)c2)c2nncn2C)C1 (single isomer, unassigned) [Compound 267]
Kd (c-Cbl (residues 47-435)): 0.19 µM
IC50 (Cbl-b): 0.037 µM
fold-selectivity (Cbl-b over C-cbl) (Cbl-b): 4.5x
Fold of selectivity [1]: 7.6×
Kd [1]: 0.025 µM
IC50 (c-Cbl): 0.17 µM
